# Source: ChEMBL document CHEMBL1944584 (Bioorg Med Chem Lett, 2012)
# Activity calls are given as the source filed them. No cut-off for these calls is given here.
# How the values were obtained:
# Format in all cases: cell-based
# [1] = target: T1, Sodium-dependent dopamine transporter (Homo sapiens, UniProt Q01959); test: Binding affinity to human His6-DAT expressed in LLCPK1 cells at 10 nM after 1.5 hrs measured 2 mins post-irradiation by autoradiography in the presence of (+/-)-bupropion; conditions: LLC-PK1, tested as the 125I-labelled form
# T1 sequence (Q01959 whole entry): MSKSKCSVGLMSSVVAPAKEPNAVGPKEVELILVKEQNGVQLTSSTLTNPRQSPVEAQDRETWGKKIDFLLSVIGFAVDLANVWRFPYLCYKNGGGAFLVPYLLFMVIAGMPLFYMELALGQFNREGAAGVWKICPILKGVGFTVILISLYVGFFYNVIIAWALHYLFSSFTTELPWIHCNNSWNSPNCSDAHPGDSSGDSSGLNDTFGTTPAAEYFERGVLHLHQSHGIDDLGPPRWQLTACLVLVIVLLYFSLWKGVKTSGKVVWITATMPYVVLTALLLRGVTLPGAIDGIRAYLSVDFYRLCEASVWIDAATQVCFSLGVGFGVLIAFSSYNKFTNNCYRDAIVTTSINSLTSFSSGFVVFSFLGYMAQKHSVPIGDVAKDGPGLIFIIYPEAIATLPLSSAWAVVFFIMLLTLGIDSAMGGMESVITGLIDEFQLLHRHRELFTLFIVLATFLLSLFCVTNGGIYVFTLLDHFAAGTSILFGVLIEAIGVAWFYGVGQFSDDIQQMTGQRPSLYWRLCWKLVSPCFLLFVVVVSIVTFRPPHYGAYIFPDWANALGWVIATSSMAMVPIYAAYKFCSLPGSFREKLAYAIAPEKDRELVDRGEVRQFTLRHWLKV
# [2] = target: T2, Neuronal acetylcholine receptor; alpha4/beta2 (Homo sapiens) (UniProt P17787+P43681); test: Binding affinity to human alpha4beta2 nAChR in HEK cells at 0.21 nM after 5 hrs by gamma counting in the presence of (+/-)-bupropion; conditions: HEK293, tested as the 125I-labelled form
# [3] = target: T1, Sodium-dependent dopamine transporter; test: Displacement of [3H]WIN-35,428 from human DAT expressed in N2A cells after 15 mins by photoaffinity labeling
# [4] = target: T2, Neuronal acetylcholine receptor; alpha4/beta2 (Homo sapiens); test: Binding affinity to human alpha4beta2 nAChR in HEK cells at 78 nM after 2 hrs measured 10 mins post-irradiation by autoradiography in the presence of 160 uM (+/-)-bupropion; conditions: HEK293, tested as the 125I-labelled form
# [5] = target: T1, Sodium-dependent dopamine transporter; test: Binding affinity to human His6-DAT expressed in LLCPK1 cells at 10 nM after 1.5 hrs measured 2 mins post-irradiation by autoradiography in the presence of (+/-)-cocaine; conditions: LLC-PK1, tested as the 125I-labelled form
# [6] = target: T1, Sodium-dependent dopamine transporter; test: Binding affinity to human His6-DAT expressed in LLCPK1 cells at 10 nM after 1.5 hrs measured 2 mins post-irradiation by SDS-PAGE/autoradiography; conditions: LLC-PK1, tested as the 125I-labelled form
structure (smiles),measurement,setting,value
CC(NC(C)(C)C)C(=O)c1ccc(N=[N+]=[N-])c(I)c1 (racemic),Activity,[1],inactive
same,Activity,[2],inactive
same,Ki,[3],3.07 µM
same,Activity,[4],inactive
same,Activity,[5],inactive
same,Activity,[6],Active
